Experimental data: publication PMC12040169 (PLOS Biology, 2025)
In brackets after ≈: the same amount, converted by molar mass.

Key:
[1] = tested on: T1, CTL2-GFP (C. trachomatis L2/434/Bu, GFP-expressing); assay: microbe, parasite or virus in culture; parameters: species or system HeLa; C. trachomatis growth in HeLa, dose-response, mean of bulk GFP fluorescence and imaged total inclusion area; conditions: Chlamydia trachomatis, 28.5 h; mean of GFP and inclusion area
T1 construct: L2/434/Bu, GFP-expressing
Outline: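 After bulk GFP and resorufin reads, fixed cells were Hoechst-stained and imaged to count chlamydial inclusions and host nuclei. Total inclusion area and number tracked bacterial growth, and nuclei number tracked host viability. MICs were derived, and 36,785 drug-like molecules were screened this way.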

in vitro = assay: in vitro; parameters: Viability of infected HeLa host cells, resazurin conversion, bulk resorufin fluorescence relative to DMSO; conditions: human, hela cells; bulk resorufin, mean of 3
[2] = tested on: T1, CTL2-GFP (C. trachomatis L2/434/Bu, GFP-expressing); assay: microbe, parasite or virus in culture; parameters: C. trachomatis growth in HeLa, dose-response, mean of bulk GFP fluorescence and imaged total inclusion area; conditions: Chlamydia trachomatis, HeLa, 28.5 h; mean of GFP and inclusion area
From the text: We screened a library of 36,785 small molecules displaying drug-like properties and covering a wide chemical space (Fig 1A and S2A Data). In this process, we also complemented the assay described above with an imaging-based readout (Fig 1B). After measurements of bulk GFP and resorufin fluorescence, cells were fixed, stained with the DNA dye Hoechst, and imaged at a high-content imaging platform to detect chlamydial inclusions (GFP) and host cell nuclei (Hoechst). The total area and number of inclusions in individual wells and the number of nuclei then served as additional proxies for chlamydial growth and host cell viability. […] MICs were calculated as described above.

Row | Compound | MIC [1] [µM] | viability at 28.5 h, 0.000416667 µM (in vitro) [%] | viability at 28.5 h, 0.00125 µM (in vitro) [%] | viability at 28.5 h, 0.00375 µM (in vitro) [%] | viability at 28.5 h, 0.0123333 µM (in vitro) [%] | viability at 28.5 h, 0.037 µM (in vitro) [%] | viability at 28.5 h, 0.111 µM (in vitro) [%] | viability at 28.5 h, 0.333 µM (in vitro) [%] | viability at 28.5 h, 1 µM (in vitro) [%] | viability at 28.5 h, 3 µM (in vitro) [%] | viability at 28.5 h, 10 µM (in vitro) [%] | viability at 28.5 h, 30 µM (in vitro) [%] | IC50 [2] [µM]
1 | CCCN(CCC)CCc1cccc2c1CCN2C(=O)c1cc2ccccc2s1 [c15e] | 3.22 (≈ 1.31 µg/mL) | 87.3 | 89.2 | 89.8 | 88.8 | 85.5 | 94.8 | 94.4 | 90.6 | 91.2 | 99.9 | 91.3 | 1.15
2 | Cn1cc(C(c2ccc(OCC(=O)O)cc2)c2cn(C)c3ccccc23)c2ccccc21 [c48e] | 8.4 (≈ 3.56 µg/mL) | 87.9 | 89.6 | 87.2 | 88.7 | 88.5 | 89.5 | 89.6 | 93.9 | 93.8 | 97.6 | 87.9 | 6.69
3 | CCCCc1ccc(Nc2csc(N)n2)cc1 [c11e] | 3.11 (≈ 0.768 µg/mL) | 97.7 | 95.9 | 96.4 | 104 | 92.8 | 97.8 | 99.6 | 102 | 92.4 | 92.8 | 69.9 | 0.956
4 | Oc1c(CN2CCN(c3ccc(F)cc3)CC2)cc(Br)c2cccnc12 [c43e] | 9.58 (≈ 3.99 µg/mL) | 97.2 | 91.7 | 92.6 | 88.5 | 91.8 | 86.8 | 90 | 86.1 | 88.5 | 84.3 | 85.2 | 5.48
5 | COc1cccc(CNC(C(=O)O)c2ccc3c(c2)OCO3)c1 (centres unmarked) [c40e] | 10.8 (≈ 3.42 µg/mL) | 109 | 98.4 | 103 | 95.7 | 99.4 | 102 | 103 | 104 | 103 | 99.7 | 89.7 | 4.96
6 | O=C(CSc1nnc(-c2cccnc2)o1)c1ccccc1 [c35e] | 11.9 (≈ 3.54 µg/mL) | 99.4 | 96.5 | 91.9 | 91.4 | 87 | 90.5 | 87 | 90.5 | 84.4 | 87 | 88.7 | 3.71
7 | FC(F)(F)CCN1CCC2(CC1)NCCc1c2[nH]c2ccc(Cl)cc12 [c34e] | 11.9 (≈ 4.42 µg/mL) | 86.8 | 91.2 | 88.2 | 90.3 | 88.5 | 93.2 | 89.1 | 91.8 | 88.3 | 93.9 | 71.8 | 3.31
8 | O=C(NCCc1c[nH]c2ccc(Cl)cc12)c1c(F)ccc(Cl)c1F [c42e] | 5.43 (≈ 2 µg/mL) | 100 | 101 | 98.1 | 104 | 99.6 | 101 | 106 | 109 | 107 | 103 | 107 | 5.3
